The structures appear in SMILES notation.

In this experiment the test system is Grp78. In words: Grp78 immunoblot in HT1080 cells. It is filed as cell-based, human. Particulars: 2.5 μM, 16 hours (also 24 or 36 hours). The protocol:
Cells (2×10^6) were cultured in 10-cm dishes, collected using a cell scraper at 4° C., and lysed by addition of 150 μl cell lysis buffer [50 mM Tris pH 7.4, 150 mM NaCl, 10% glycerol, 0.5% Triton X-100. 0.5% NP-40, 2 mM Na3VO4, 20 mM beta-glycerophosphate, 10 mM NaF, 1 mM DTT, 1 mM PMSF). Lysates were centrifuged for 5 min at 10,000×g, and proteins (˜40 μg) were resolved by SDS-PAGE followed by semi-dry transfer to nitrocellulose membranes. Membranes were blocked in TBS-5% milk supplemented with 0.1% Tween-20. The blots were then probed overnight with relevant antibodies, washed, and incubated for 2 hours with species-specific secondary antibodies conjugated to horseradish peroxidase. After washing in block solution, immunoreactive material was detected by enhanced chemiluminescence (SuperSignal West Dura Extended, Pierce, Inc., Rockville, Ill.).
HT1080 cells were exposed to DMSO vehicle (lane 1), irestatin 9389 (2.5 μM; lane 2) for 16 hours or Tm (5 μg/ml; lane 3) for 8 hours. Following treatments, cells were harvested, lysed, and analyzed by immunoblotting using anti-Grp78 antibody (top) or anti-actin (bottom) as a loading control. […] Cell lysates were analyzed by Western immunoblotting using anti-IRE1α (bottom) or anti-phospho-IRE1α antibodies (top). […] Lysates were analyzed by Western blot using antisera specific for phospho-JNK1 (top) or total JNK1 (bottom). […]

Take `Cc1csc(NC(=O)CSc2nc3c(c(C(F)(F)F)c2C#N)CCC3)n1` [Compound 9389]: the Grp78 levels result reads like this: (listed as Irestatin 9389) “does not modulate the expression of Grp78”; (listed as irestatin 9389) “no effect on Grp78 levels”.

For the origin of these results see patent US20090291857A1, “METHODS TO IDENTIFY INHIBITORS OF THE UNFOLDED PROTEIN RESPONSE” (THE BOARD OF TRUSTEES OF THE LELAND STANFORD JUNIOR …, priority 2006, published 2009).
